The target of test [1] is Serine/threonine-protein kinase 38-like (Homo sapiens) (UniProt Q9Y2H1). Put plainly: Selectivity interaction (ActivX KiNativ screen (ex vivo kinase selectivity in human PBMCs)) EUB0001619a STK38L. The format is cell-based. To be noted: PBMC, at 1 µM.
The target of test [2] is T1, Interleukin-1 receptor-associated kinase 3 (Homo sapiens) (UniProt Q9Y616).
T1 sequence (whole entry): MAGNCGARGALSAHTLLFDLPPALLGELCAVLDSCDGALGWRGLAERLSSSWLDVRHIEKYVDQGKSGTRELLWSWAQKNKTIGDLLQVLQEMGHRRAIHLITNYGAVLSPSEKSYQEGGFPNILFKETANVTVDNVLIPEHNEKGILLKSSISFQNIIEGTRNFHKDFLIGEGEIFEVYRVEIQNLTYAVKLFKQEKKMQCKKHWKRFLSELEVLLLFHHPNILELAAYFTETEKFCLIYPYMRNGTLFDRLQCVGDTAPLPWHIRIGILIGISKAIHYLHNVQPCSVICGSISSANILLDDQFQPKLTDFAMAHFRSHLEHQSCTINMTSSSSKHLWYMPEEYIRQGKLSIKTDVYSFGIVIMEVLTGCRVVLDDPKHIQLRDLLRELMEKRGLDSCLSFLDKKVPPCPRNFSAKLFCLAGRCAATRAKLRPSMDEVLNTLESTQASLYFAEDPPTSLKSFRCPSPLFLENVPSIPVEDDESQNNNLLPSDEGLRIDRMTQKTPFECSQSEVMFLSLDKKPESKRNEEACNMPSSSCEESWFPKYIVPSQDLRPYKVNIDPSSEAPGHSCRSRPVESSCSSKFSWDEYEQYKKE
Conditions: at 10 µM.

The target in test [3] is Citron Rho-interacting kinase (Homo sapiens) (UniProt O14578). Put plainly: Selectivity interaction (KinomeScan (DiscoverX)) EUB0000607a CIT. Conditions: at 10 µM.
Test [4] concerns the target T2, Aurora kinase A (Homo sapiens) (UniProt O14965).
T2 sequence (whole entry): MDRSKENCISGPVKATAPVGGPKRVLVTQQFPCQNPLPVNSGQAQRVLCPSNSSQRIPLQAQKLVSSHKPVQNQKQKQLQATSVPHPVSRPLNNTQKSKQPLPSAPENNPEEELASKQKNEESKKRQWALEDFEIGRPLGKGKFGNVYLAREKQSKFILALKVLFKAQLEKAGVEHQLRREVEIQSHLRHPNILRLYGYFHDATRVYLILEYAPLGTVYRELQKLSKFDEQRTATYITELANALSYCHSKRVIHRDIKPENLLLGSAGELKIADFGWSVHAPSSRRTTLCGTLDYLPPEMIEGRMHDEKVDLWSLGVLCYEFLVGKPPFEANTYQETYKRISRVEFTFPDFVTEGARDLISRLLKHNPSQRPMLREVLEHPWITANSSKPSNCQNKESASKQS
To be noted: at 10 µM.

Test [5] addresses Proto-oncogene tyrosine-protein kinase receptor Ret (Homo sapiens, UniProt P07949). Put plainly: Selectivity interaction (KinaseProfiler screening (Millipore)) EUB0000601a RET. Conditions: at 3 µM.
The target of test [6] is Cyclin-dependent kinase 2 (Homo sapiens, UniProt P24941). Put plainly: Selectivity interaction (ActivX KiNativ screen (kinase selectivity in THP-1 cell lysates)) EUB0000639a CDK2. To be noted: lysate, at 0.2 µM. Format: subcellular.
The target of test [7] is T3, Mitogen-activated protein kinase kinase kinase kinase 2 (Homo sapiens) (UniProt Q12851).
T3 sequence (whole entry): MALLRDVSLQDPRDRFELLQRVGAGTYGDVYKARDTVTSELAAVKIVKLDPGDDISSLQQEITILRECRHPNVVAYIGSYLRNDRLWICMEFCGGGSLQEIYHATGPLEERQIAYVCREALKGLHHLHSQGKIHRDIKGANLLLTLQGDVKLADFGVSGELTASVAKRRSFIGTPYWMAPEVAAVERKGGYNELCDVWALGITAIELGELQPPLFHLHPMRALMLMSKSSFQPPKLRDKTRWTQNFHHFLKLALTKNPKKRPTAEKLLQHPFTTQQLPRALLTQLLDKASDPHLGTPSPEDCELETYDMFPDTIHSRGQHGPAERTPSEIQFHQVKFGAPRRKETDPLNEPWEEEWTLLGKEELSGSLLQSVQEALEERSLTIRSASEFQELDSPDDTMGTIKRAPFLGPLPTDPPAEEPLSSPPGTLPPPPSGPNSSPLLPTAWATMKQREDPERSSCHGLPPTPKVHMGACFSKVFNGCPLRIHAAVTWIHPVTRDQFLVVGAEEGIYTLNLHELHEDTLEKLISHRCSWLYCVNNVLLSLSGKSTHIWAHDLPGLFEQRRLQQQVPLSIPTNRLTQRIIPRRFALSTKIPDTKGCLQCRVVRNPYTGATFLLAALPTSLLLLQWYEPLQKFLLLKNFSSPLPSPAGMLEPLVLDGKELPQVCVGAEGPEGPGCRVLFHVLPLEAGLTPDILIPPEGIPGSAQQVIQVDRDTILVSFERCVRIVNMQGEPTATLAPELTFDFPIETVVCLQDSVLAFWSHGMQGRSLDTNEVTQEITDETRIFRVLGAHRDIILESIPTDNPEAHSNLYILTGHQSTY
Put plainly: Selectivity interaction (ActivX KiNativ screen (kinase selectivity in THP-1 cell lysates)) EUB0000639a MAP4K2. The format is subcellular. Conditions: lysate, at 0.2 µM.

Test [8] has as its target Ephrin type-A receptor 2 (Homo sapiens) (UniProt P29317). Put plainly: Selectivity interaction (ProQinase) EUB0000171b EPHA2.
In test [9] the target is Prostaglandin G/H synthase 2 (Homo sapiens, UniProt P35354). Put plainly: Selectivity interaction (COX-2 assay, human recombinant ) EUB0000877a PTGS2.
In test [10] the target is Mitogen-activated protein kinase 4 (Homo sapiens) (UniProt P31152). Put plainly: Selectivity interaction (KinomeScan (DiscoverX)) EUB0000092b MAPK4. Conditions: at 10 µM.
Test [11] addresses Phosphatidylinositol 3-kinase catalytic subunit type 3 (Homo sapiens, UniProt Q8NEB9). Put plainly: Selectivity interaction (KinomeScan (DiscoverX)) EUB0001079a PIK3C3. To be noted: at 1 µM.
The target in test [12] is Interferon-induced, double-stranded RNA-activated protein kinase (Homo sapiens) (UniProt P19525). Put plainly: Selectivity interaction (KinomeScan (DiscoverX)) EUB0001079a EIF2AK2. To be noted: at 1 µM.
For test [13], the target named is Dual specificity protein kinase CLK4 (Homo sapiens, UniProt Q9HAZ1). Put plainly: Selectivity interaction (KinomeScan (DiscoverX)) EUB0001079a CLK4. Conditions: at 1 µM.
For test [14], the target named is Tyrosine-protein kinase Fgr (Homo sapiens) (UniProt P09769). Put plainly: Selectivity interaction (Millipore kinase profiler) EUB0000124b FGR. Conditions: at 10 µM.
Test [15] addresses Tyrosine-protein kinase Fer (Homo sapiens) (UniProt P16591). Put plainly: Selectivity interaction (Kinase panel (KiNativ target engagement assay in Jurkat cells)) EUB0001635a FER. The format is cell-based. Conditions: Selectivity number of off-targets 0.0, Selectivity number of targets 233.0, Source Knowledge https://www.sciencedirect.com/science/article/pii/S2451945619300674?via%3Dihub, at 1 µM.

The record followed here is ChEMBL document CHEMBL5465560, “Selectivity Literature for EUbOPEN Chemogenomic Library” (2024).

A word on the pIC50: it is the negative decadic logarithm of the IC50, by convention in mol/L.

The structures appear in SMILES notation. pIC50: −log10 of the molar value. Where only a bound is given, the exact number is not on record here.

Sequence of Ephrin type-A receptor 2 (Homo sapiens) (P29317 whole entry): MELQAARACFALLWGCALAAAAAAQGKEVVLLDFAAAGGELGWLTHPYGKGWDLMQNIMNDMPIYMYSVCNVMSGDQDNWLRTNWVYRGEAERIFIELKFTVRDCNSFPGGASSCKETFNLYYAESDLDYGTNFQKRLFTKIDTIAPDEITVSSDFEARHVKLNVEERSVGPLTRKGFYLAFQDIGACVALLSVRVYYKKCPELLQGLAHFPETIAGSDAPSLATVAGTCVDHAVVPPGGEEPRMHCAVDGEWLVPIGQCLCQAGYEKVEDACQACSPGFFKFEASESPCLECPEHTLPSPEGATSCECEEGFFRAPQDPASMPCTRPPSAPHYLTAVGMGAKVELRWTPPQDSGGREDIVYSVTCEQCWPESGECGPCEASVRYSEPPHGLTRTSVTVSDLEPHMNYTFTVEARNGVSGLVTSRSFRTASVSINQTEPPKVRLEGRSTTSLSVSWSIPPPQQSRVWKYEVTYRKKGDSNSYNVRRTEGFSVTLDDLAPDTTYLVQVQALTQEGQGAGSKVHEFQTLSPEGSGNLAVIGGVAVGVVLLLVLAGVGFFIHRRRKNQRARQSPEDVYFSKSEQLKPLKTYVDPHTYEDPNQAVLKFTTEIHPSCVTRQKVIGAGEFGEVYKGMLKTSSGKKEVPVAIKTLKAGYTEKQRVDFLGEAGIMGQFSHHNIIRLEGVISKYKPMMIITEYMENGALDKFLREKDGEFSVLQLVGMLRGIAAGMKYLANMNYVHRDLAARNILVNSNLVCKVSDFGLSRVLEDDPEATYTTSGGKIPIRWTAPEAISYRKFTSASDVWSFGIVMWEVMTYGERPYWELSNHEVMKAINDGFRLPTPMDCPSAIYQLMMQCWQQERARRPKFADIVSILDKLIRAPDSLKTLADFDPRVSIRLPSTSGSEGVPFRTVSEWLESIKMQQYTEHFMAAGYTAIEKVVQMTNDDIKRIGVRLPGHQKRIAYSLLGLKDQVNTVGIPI
Sequence of Prostaglandin G/H synthase 2 (P35354 whole entry): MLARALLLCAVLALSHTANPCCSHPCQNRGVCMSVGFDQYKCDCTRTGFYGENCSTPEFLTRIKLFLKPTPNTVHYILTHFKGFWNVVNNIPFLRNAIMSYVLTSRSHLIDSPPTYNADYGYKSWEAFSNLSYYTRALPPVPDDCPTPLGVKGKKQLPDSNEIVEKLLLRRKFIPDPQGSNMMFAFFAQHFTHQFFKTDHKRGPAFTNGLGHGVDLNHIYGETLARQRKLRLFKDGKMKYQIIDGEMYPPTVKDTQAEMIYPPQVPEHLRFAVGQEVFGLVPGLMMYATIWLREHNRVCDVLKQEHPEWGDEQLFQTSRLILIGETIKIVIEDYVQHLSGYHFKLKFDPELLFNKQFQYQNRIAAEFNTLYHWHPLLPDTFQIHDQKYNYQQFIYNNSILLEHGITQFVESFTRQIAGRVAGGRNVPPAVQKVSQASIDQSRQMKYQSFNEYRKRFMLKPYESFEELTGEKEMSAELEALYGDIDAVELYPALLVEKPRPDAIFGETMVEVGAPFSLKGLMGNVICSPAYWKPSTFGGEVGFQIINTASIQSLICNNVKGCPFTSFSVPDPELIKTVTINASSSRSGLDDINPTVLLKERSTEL
Sequence of Tyrosine-protein kinase Fer (Homo sapiens) (P16591 whole entry, looked up): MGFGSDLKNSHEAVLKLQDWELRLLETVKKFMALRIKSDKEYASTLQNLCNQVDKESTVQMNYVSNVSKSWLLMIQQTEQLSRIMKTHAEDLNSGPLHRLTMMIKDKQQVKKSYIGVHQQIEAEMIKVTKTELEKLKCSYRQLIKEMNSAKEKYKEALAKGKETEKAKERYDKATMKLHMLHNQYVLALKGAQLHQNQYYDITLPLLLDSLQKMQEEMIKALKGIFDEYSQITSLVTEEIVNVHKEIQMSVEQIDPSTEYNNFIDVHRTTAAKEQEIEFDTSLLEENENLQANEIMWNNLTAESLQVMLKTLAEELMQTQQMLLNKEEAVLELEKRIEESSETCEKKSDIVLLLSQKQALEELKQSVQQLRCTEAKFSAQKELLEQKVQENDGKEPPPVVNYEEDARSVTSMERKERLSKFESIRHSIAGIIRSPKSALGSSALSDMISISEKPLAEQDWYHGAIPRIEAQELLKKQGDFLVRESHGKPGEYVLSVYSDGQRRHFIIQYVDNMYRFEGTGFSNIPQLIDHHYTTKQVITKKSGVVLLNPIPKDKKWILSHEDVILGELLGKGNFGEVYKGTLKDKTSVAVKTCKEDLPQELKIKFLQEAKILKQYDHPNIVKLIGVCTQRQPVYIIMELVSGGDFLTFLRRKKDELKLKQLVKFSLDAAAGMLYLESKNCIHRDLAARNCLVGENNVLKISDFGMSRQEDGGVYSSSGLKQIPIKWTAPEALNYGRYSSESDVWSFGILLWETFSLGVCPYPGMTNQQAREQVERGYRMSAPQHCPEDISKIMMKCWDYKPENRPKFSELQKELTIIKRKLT
Sequence of Proto-oncogene tyrosine-protein kinase receptor Ret (P07949 whole entry): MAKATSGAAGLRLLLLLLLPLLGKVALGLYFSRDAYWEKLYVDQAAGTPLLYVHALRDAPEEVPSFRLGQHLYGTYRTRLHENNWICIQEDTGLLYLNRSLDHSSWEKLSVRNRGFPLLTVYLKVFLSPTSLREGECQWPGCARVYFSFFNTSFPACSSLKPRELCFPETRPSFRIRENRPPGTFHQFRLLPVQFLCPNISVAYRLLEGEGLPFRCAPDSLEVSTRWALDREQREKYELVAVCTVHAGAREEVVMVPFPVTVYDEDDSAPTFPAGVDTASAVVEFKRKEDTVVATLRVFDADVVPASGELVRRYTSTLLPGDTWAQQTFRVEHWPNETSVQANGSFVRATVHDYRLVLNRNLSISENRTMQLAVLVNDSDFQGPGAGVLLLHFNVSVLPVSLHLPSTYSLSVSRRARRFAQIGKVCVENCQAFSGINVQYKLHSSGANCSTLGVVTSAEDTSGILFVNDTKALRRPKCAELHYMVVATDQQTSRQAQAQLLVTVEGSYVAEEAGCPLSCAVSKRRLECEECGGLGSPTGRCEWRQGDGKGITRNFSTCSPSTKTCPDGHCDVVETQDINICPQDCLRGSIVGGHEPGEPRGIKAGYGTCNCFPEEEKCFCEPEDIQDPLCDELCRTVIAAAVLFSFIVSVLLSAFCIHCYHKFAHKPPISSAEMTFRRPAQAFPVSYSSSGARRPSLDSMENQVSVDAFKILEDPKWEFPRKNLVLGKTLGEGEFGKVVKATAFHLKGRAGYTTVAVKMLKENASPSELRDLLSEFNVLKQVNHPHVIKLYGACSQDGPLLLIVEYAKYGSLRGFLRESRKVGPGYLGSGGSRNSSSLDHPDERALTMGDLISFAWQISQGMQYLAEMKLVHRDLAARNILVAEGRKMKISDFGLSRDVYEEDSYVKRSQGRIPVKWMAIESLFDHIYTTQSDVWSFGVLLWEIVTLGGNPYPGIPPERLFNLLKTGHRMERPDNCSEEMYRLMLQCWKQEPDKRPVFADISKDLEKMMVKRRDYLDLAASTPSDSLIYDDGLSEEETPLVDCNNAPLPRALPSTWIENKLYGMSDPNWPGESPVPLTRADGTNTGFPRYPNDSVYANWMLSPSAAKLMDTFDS
Sequence of Dual specificity protein kinase CLK4 (Q9HAZ1 whole entry, looked up): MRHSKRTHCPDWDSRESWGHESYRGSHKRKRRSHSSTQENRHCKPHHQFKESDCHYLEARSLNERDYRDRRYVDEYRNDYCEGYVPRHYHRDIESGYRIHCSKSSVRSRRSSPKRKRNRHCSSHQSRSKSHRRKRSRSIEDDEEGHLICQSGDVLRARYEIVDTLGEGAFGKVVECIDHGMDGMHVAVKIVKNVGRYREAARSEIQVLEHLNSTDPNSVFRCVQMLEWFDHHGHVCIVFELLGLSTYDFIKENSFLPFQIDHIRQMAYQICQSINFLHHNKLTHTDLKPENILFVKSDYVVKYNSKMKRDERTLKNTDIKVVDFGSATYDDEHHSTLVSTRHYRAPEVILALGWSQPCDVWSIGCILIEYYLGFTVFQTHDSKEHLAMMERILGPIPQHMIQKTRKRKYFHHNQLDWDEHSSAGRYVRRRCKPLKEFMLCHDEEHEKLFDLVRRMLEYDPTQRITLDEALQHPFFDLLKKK
Sequence of Interferon-induced, double-stranded RNA-activated protein kinase (Homo sapiens) (P19525 whole entry): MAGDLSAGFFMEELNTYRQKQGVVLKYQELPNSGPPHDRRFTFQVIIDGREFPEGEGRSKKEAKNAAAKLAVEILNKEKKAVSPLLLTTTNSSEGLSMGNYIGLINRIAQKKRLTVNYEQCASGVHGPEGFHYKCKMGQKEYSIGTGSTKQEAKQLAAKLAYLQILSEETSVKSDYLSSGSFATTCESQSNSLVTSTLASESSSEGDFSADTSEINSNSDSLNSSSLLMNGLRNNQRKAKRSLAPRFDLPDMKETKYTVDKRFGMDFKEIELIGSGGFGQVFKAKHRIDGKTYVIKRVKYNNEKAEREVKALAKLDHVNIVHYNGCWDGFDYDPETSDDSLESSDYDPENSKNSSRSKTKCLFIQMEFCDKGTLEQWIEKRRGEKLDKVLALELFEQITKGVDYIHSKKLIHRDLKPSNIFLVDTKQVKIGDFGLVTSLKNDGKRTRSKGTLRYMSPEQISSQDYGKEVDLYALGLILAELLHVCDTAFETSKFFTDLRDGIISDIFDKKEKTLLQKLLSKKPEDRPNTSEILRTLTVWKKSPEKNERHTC
Sequence of Tyrosine-protein kinase Fgr (Homo sapiens) (P09769 2-529 limits assumed): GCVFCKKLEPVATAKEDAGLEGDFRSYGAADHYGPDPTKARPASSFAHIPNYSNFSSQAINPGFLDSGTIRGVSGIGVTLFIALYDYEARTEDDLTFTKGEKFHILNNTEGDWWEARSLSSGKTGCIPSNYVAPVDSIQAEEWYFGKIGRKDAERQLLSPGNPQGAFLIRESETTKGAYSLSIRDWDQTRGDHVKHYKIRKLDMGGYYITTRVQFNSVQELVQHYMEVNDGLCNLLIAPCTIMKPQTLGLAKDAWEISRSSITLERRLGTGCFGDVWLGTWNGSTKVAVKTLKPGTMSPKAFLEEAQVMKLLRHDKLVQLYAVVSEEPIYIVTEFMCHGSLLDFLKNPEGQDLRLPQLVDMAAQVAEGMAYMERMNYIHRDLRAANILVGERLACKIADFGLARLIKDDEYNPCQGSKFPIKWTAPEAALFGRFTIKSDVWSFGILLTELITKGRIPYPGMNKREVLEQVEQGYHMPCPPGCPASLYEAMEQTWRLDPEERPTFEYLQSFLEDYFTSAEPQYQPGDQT

As for `N#Cc1cccc(-c2c[nH]c3ncnc(N4CCOCC4)c23)c1`, in test [1], the % of inhibition stood at 22%.

In test [2], `CCN(CC)CCCCNc1ncc2cc(-c3cc(OC)cc(OC)c3)c(NC(=O)NC(C)(C)C)nc2n1` gave a % of control of 100%.

Compound `CNC(=O)Nc1ccc(-c2nc(N3CC4CCC(C3)O4)c3cnn(C4CCC5(CC4)OCCO5)c3n2)cc1` registered a % of control in [3] of 100%.

Turning to `Cc1cc([C@@H](C)Nc2ccccc2C(=O)O)c2nc(N3CCOCC3)cc(=O)n2c1` [AZD-6482], the % of control in [4] amounted to 100%.

For the compound `CCc1cc(Nc2nccc(-c3c(-c4ccc(OC)c(C(=O)Nc5c(F)cccc5F)c4)nc4ccccn34)n2)c(OC)cc1N1CCC(N2CCN(S(C)(=O)=O)CC2)CC1`, the % of inhibition in test [5] is 52%.

Consider `CC[C@@H]1[C@H](F)C(=O)N[C@@H]1COc1nccc2cc(C(N)=O)c(OC)cc12` [ZIMLOVISERTIB], for which the figures for the % of inhibition in test [6] and in [7] were -1% and 10.3%, respectively.

`C=CC(=O)Nc1cccc(C(=O)Nc2ccc(Nc3cc(-c4[nH]c(SC)nc4C)ccn3)cc2)c1`: the % of control came out at 92% in test [8] (at 1 µM) and 81% in test [8] (at 5 µM).

For `CCC(=O)N1CC[C@H](Nc2ncnc3c2CN(c2cnc(OC)c(C(F)(F)F)c2)CC3)C1` [LENIOLISIB], in test [9], the pIC50 was less than 4.52.

In turn, `CCC(=O)N1CCN(c2ccc(-n3c(=O)ccc4cnc5ccc(-c6cnc7ccccc7c6)cc5c43)cc2C(F)(F)F)CC1` gave a % of control in test [10] of 80%.

For the compound `Nc1cnc(N2CCc3cc(S(=O)(=O)Nc4c(F)cc(Cl)cc4F)cc(N4CCCC4=O)c32)nc1` [TP-020n], the % of control in test [11] came out at 100%; in [12], 41%; in [13], 89%.

As to `CC(=O)Nc1cccc(-n2c(=O)n(C3CC3)c(=O)c3c(Nc4ccc(I)cc4F)n(C)c(=O)c(C)c32)c1`, the % of control in test [14] came to 86%.

In the case of `C=CC(=O)Nc1ccc(C(=O)Nc2[nH]nc3c2CN(C(=O)N[C@H](CN(C)C)c2ccccc2)C3(C)C)cc1`, the % of engagement in [15] was -6.9%.
